# Patent US20100267561A1, “HERBICIDAL PYRIDAZINONE DERIVATIVES” (priority 2007, published 2010)
# Assays:
# Assay type in all cases: in vivo
# [1] = test system: wild oat (Avena fatua); test: Test B pre-/postemergence plant response
# Summary of the method: (§1)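 Preemergence and postemergence (plants 2-18 cm, 1- to 4-leaf stage) applications used test chemicals in a non-phytotoxic solvent with surfactant. Plants were held in a greenhouse 13 to 15 days, then rated visually against controls on a 0-100 scale (0 no effect, 100 complete control).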
# [2] = test system: catchweed bedstraw (Galium aparine); test: Test B pre-/postemergence plant response; settings: Preemergence
# Summary of the method: as §1
# [3] = test system: bermudagrass (Cynodon dactylon); test: Test B pre-/postemergence plant response
# Summary of the method: as §1
# [4] = test system: cocklebur (Xanthium strumarium); test: Test B pre-/postemergence plant response
# Summary of the method: as §1
# [5] = test system: wheat (Triticum aestivum); test: Test B pre-/postemergence plant response
# Summary of the method: as §1
# [6] = test system: soybean (Glycine max); test: Test B pre-/postemergence plant response
# Summary of the method: as §1
# [7] = test system: downy bromegrass (Bromus tectorum); test: Test B pre-/postemergence plant response
# Summary of the method: as §1
# [8] = test system: large crabgrass (Digitaria sanguinalis); test: Test B pre-/postemergence plant response
# Summary of the method: as §1
# [9] = test system: woolly cupgrass (Eriochloa villosa); test: Test B pre-/postemergence plant response
# Summary of the method: as §1
# [10] = test system: velvetleaf (Abutilon theophrasti); test: Test B pre-/postemergence plant response
# Summary of the method: as §1
# [11] = test system: barnyardgrass (Echinochloa crus-galli); test: Test B flooded paddy test plant response
# Summary of the method: (§2)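 2-leaf plants; pots flooded 3 cm above soil; compound added to paddy water; depth maintained. Greenhouse 13–15 d. Visual rating vs controls, 0 (no effect) to 100 (complete control); dash = no result.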
# [12] = test system: rice (Oryza sativa); test: Test B flooded paddy test plant response
# Summary of the method: as §2
# [13] = test system: ducksalad (Heteranthera limosa); test: Test B flooded paddy test plant response
# Summary of the method: as §2
# [14] = test system: umbrella sedge (Cyperus difformis); test: Test B flooded paddy test plant response
# Summary of the method: as §2
# [15] = 8 g ai/ha, postemergence, 0-100 scale
# [16] = 16 g ai/ha, postemergence, 0-100 scale
# [17] = Postemergence, 31 g ai/ha, scale 0 to 100
# [18] = Postemergence, 62 g ai/ha, scale 0 to 100, 0 no effect, 100 complete control
# [19] = Preemergence, 8 g ai/ha, scale 0 to 100 (0 no effect, 100 complete control)
# [20] = Preemergence, 31 g ai/ha, scale 0 to 100 (0 no effect, 100 complete control)
# [21] = Preemergence, 62 g ai/ha, 0 to 100 scale, 0 no effect, 100 complete control
# [22] = Preemergence, 16 g ai/ha, scale 0 to 100
# [23] = Preemergence, 16 g ai/ha, scale 0 to 100 (0 no effect, 100 complete control)
# [24] = Flood (flooded paddy test), 62 g ai/ha, scale 0 to 100, 0 no effect, 100 complete control
# [25] = Flood (flooded paddy test), 125 g ai/ha, scale 0 to 100, 0 no effect, 100 complete control
# [26] = Flood (flooded paddy test), 250 g ai/ha, scale 0 to 100, 0 no effect, 100 complete control
# [27] = Flood, 31 g ai/ha, scale 0 to 100
# [28] = Preemergence, 31 g ai/ha, 0 to 100 scale, 0 no effect, 100 complete control
# [29] = Preemergence, 62 g ai/ha, scale 0 to 100
# [30] = Preemergence, 8 g ai/ha, scale 0 to 100
smiles,measurement,setting,value
COc1nn(C)c(=O)c(-n2nc(-c3ccc(Br)cc3)cc2C)c1O [Compound 82],"Oat, Wild plant response rating",[1]; [15],95
same,"Oat, Wild plant response rating",[1]; [16],95
same,"Plant response rating, Oat, Wild",[1]; [17],95
same,"Plant response rating, Oat, Wild",[1]; [18],100
same,"Oat, Wild plant response rating",[1]; [19],0
same,"Plant response rating, Oat, Wild",[1]; [20],80
same,"Plant response rating, Oat, Wild",[1]; [21],80
same,"Oat, Wild plant response rating",[1]; [22],60
same,"Plant response rating, Galium","[2]; 31 g ai/ha, scale 0 to 100 (0 no effect, 100 complete control)",50
same,"Plant response rating, Galium","[2]; 62 g ai/ha, 0 to 100 scale, 0 no effect, 100 complete control",50
same,Bermudagrass plant response rating,[3]; [15],98
same,Bermudagrass plant response rating,[3]; [16],100
same,"Plant response rating, Bermudagrass",[3]; [17],100
same,"Plant response rating, Bermudagrass",[3]; [18],100
same,Bermudagrass plant response rating,[3]; [19],90
same,Bermudagrass plant response rating,[3]; [23],100
same,"Plant response rating, Bermudagrass",[3]; [20],100
same,"Plant response rating, Bermudagrass",[3]; [21],100
same,Cocklebur plant response rating,[4]; [15],0
same,Cocklebur plant response rating,[4]; [16],0
same,"Plant response rating, Cocklebur",[4]; [17],0
same,"Plant response rating, Cocklebur",[4]; [18],20
same,Cocklebur plant response rating,[4]; [19],0
same,"Plant response rating, Cocklebur",[4]; [20],0
same,"Plant response rating, Cocklebur",[4]; [21],35
same,Cocklebur plant response rating,[4]; [22],0
same,Wheat plant response rating,[5]; [15],85
same,Wheat plant response rating,[5]; [16],98
same,"Plant response rating, Wheat",[5]; [17],100
same,"Plant response rating, Wheat",[5]; [18],100
same,Wheat plant response rating,[5]; [19],0
same,"Plant response rating, Wheat",[5]; [20],98
same,"Plant response rating, Wheat",[5]; [21],100
same,Wheat plant response rating,[5]; [22],65
same,Soybean plant response rating,[6]; [15],0
same,Soybean plant response rating,[6]; [16],45
same,"Plant response rating, Soybean",[6]; [17],55
same,"Plant response rating, Soybean",[6]; [18],70
same,Soybean plant response rating,[6]; [19],0
same,"Plant response rating, Soybean",[6]; [20],20
same,"Plant response rating, Soybean",[6]; [21],100
same,Soybean plant response rating,[6]; [22],0
same,"Bromegrass, Downy plant response rating",[7]; [15],85
same,"Bromegrass, Downy plant response rating",[7]; [16],95
same,"Plant response rating, Bromegrass, Downy",[7]; [17],100
same,"Plant response rating, Bromegrass, Downy",[7]; [18],100
same,"Bromegrass, Downy plant response rating",[7]; [19],30
same,"Plant response rating, Bromegrass, Downy",[7]; [20],98
same,"Plant response rating, Bromegrass, Downy",[7]; [21],100
same,"Bromegrass, Downy plant response rating",[7]; [22],50
same,"Crabgrass, Large plant response rating",[8]; [15],100
same,"Crabgrass, Large plant response rating",[8]; [16],100
same,"Plant response rating, Crabgrass, Large",[8]; [17],100
same,"Plant response rating, Crabgrass, Large",[8]; [18],100
same,"Crabgrass, Large plant response rating",[8]; [19],95
same,"Plant response rating, Crabgrass, Large",[8]; [20],100
same,"Plant response rating, Crabgrass, Large",[8]; [21],100
same,"Crabgrass, Large plant response rating",[8]; [22],98
same,"Cupgrass, Woolly plant response rating",[9]; [15],85
same,"Cupgrass, Woolly plant response rating",[9]; [16],90
same,"Plant response rating, Cupgrass, Woolly",[9]; [17],95
same,"Plant response rating, Cupgrass, Woolly",[9]; [18],100
same,"Cupgrass, Woolly plant response rating",[9]; [19],45
same,"Plant response rating, Cupgrass, Woolly",[9]; [20],98
same,"Plant response rating, Cupgrass, Woolly",[9]; [21],100
same,"Cupgrass, Woolly plant response rating",[9]; [22],80
same,Velvetleaf plant response rating,[10]; [15],0
same,Velvetleaf plant response rating,[10]; [16],0
same,"Plant response rating, Velvetleaf",[10]; [17],0
same,"Plant response rating, Velvetleaf",[10]; [18],55
same,Velvetleaf plant response rating,[10]; [19],0
same,"Plant response rating, Velvetleaf",[10]; [20],45
same,"Plant response rating, Velvetleaf",[10]; [21],75
same,Velvetleaf plant response rating,[10]; [22],0
Cc1cc(-c2ccc(C(F)(F)F)cc2)nn1-c1c(O)c(C(C)C)nn(C)c1=O [Compound 27],"Plant response rating, Barnyardgrass",[11]; [24],0
same,"Plant response rating, Barnyardgrass",[11]; [25],0
same,"Plant response rating, Barnyardgrass",[11]; [26],30
same,"Plant response rating, Barnyardgrass",[11]; [27],0
same,"Plant response rating, Rice",[12]; [24],0
same,"Plant response rating, Rice",[12]; [25],0
same,"Plant response rating, Rice",[12]; [26],0
same,"Plant response rating, Rice",[12]; [27],0
same,"Plant response rating, Ducksalad",[13]; [24],40
same,"Plant response rating, Ducksalad",[13]; [25],60
same,"Plant response rating, Ducksalad",[13]; [26],75
same,"Plant response rating, Ducksalad",[13]; [27],0
same,"Plant response rating, Sedge, Umbrella",[14]; [24],20
same,"Plant response rating, Sedge, Umbrella",[14]; [25],30
same,"Plant response rating, Sedge, Umbrella",[14]; [26],65
same,"Plant response rating, Sedge, Umbrella",[14]; [27],20
same,"Plant response rating, Oat, Wild",[1]; [23],0
same,"Plant response rating, Oat, Wild",[1]; [28],50
same,"Plant response rating, Oat, Wild",[1]; [29],50
same,"Oat, Wild plant response rating",[1]; [30],0
same,"Plant response rating, Bermudagrass",[3]; [23],0
same,"Plant response rating, Bermudagrass",[3]; [28],100
same,"Plant response rating, Bermudagrass",[3]; [29],100
same,"Plant response rating, Cocklebur",[4]; [23],0
same,"Plant response rating, Cocklebur",[4]; [28],0
same,"Plant response rating, Cocklebur",[4]; [29],0
same,Cocklebur plant response rating,[4]; [30],0
same,"Plant response rating, Wheat",[5]; [23],0
same,"Plant response rating, Wheat",[5]; [28],15
same,"Plant response rating, Wheat",[5]; [29],45
same,Wheat plant response rating,[5]; [30],0
same,"Plant response rating, Soybean",[6]; [23],0
same,"Plant response rating, Soybean",[6]; [28],0
same,"Plant response rating, Soybean",[6]; [29],0
same,Soybean plant response rating,[6]; [30],0
same,"Plant response rating, Bromegrass, Downy",[7]; [23],0
same,"Plant response rating, Bromegrass, Downy",[7]; [28],50
same,"Plant response rating, Bromegrass, Downy",[7]; [29],50
same,"Bromegrass, Downy plant response rating",[7]; [30],0
same,"Plant response rating, Crabgrass, Large",[8]; [23],0
same,"Plant response rating, Crabgrass, Large",[8]; [28],0
same,"Plant response rating, Crabgrass, Large",[8]; [29],0
same,"Crabgrass, Large plant response rating",[8]; [30],0
same,"Plant response rating, Cupgrass, Woolly",[9]; [23],0
same,"Plant response rating, Cupgrass, Woolly",[9]; [28],30
same,"Plant response rating, Cupgrass, Woolly",[9]; [29],55
same,"Cupgrass, Woolly plant response rating",[9]; [30],0
same,"Plant response rating, Velvetleaf",[10]; [23],0
same,"Plant response rating, Velvetleaf",[10]; [28],0
same,"Plant response rating, Velvetleaf",[10]; [29],0
same,Velvetleaf plant response rating,[10]; [30],0
